# ChEMBL document CHEMBL1144776, “Anti-inflammatory constituents of the red alga Gracilaria verrucosa and their synthetic analogues” (J Nat Prod, 2008)
# Active and inactive are the calls of the source. No cut-off for these calls is given here.
# What was measured:
# Assay type in all cases: functional, cell-based
# RAW264.7 [1] = experiment: Suppression of iNOS mRNA expression in mouse RAW264.7 cells
# RAW264.7 [2] = experiment: Antiinflammatory activity in mouse RAW264.7 cells assessed as inhibition of LPS-stimulated nitric oxide production after 24 hrs by […]; details: RAW264.7, 24 h
# RAW264.7 [3] = experiment: Antiinflammatory activity in mouse RAW264.7 cells assessed as inhibition of LPS-stimulated NO production at 5 to 20 ug/mL after 24 hrs by […]
IC50 (RAW264.7 [2]) [µM],Structure (SMILES),Activity (RAW264.7 [1]),Activity (RAW264.7 [3])
< 33.8,CCCCCCCCC(=O)/C=C/CCCCCCC(=O)O,Active,
,CCCCCCCC/C=C(\C(=O)CCCCCCC(=O)O)c1ccccc1,,inactive
< 33.8,CCCCCCC/C=C/C(=O)CCCCCCCC(=O)O,Active,
,CCCCCCCC(=O)/C(=C\CCCCCCCC(=O)OC)c1ccccc1,,inactive
,CCCCCCC/C=C(\C(=O)CCCCCCCC(=O)O)c1ccccc1,,inactive
,CCCCCCC/C=C(\C(=O)CCCCCCCC(=O)OC)c1ccccc1,,inactive
